What was measured:
Assay type in all cases: biochemical
[1] = target: T1, EGFR tyrosine kinase (WT) (Homo sapiens, UniProt P00533); test: EGFR tyrosine kinase inhibiting activity, ADP-Glo (EGFR Kinase Enzyme System, WT); conditions: read-out: EGFR Kinase inhibition: IC50 WT
T1 construct: purchased Promega V3831
Description: (§1) Four types of EGFR Kinase Enzyme Systems, specifically, EGFR Kinase Enzyme System (Catalog No. V3831), EGFR (L858R) Kinase Enzyme System (Catalog No. V5322), EGFR (T790M) Kinase Enzyme System (Catalog No. V4506), and EGFR (T790M, L858R) Kinase Enzyme System (Catalog No. V5324) were used (all of them were manufactured by Promega).
(§2) The measurement was carried out according to the Promega protocol applications guide. That is, a buffer solution (40 mM Tris-HCl, pH 7.5, 20 mM MgCl2, 50 μM DTT and 0.1 mg/mL BSA) was used as a dilute solution. The concentration of each compound started at 20 μM (the final concentration, including 1% DMSO) with 5-fold dilutions with the buffer solution. Thus, ten concentrations of each compound were prepared. Then, 2 μL of each concentration of each compound thus obtained was added to each well of a 384-well plate. Furthermore, 4 μL (20 ng) of an EGFR Kinase […] that came with each EGFR Kinase Enzyme System was added to each well, which then was incubated at room temperature for ten minutes. Subsequently, 4 μL of mixed solution of ATP (10 μM) and Poly(Glu, Tyr) (2 μg) substrate was added to each well, which then was incubated at room temperature for one hour. Then, 10 μL of ADP-Glo™ Reagent (ADP-Glo™ Kinase Assay, Promega) was added to each well, which then was reacted at room temperature for 40 minutes. Furthermore, 20 μL of Kinase Detection Reagent (ADP-Glo™ Kinase Assay, Promega) was added to each well, which then was reacted at room temperature for one hour. […] From the data thus obtained, dose-response curves and IC50 were calculated using GraphPad Prism 5 (GraphPad Software, Inc.). In Table 1 below, WT indicates the measurement results obtained with the EGFR Kinase Enzyme System, L858R indicates the measurement results obtained with the EGFR (L858R) Kinase Enzyme System, T790M indicates the measurement results obtained with the EGFR (T790M) Kinase Enzyme System, and DM indicates the measurement results obtained with the EGFR (T790M, L858R) Kinase Enzyme System.

EGFR (L858R) = target: T2, EGFR (L858R) (Homo sapiens, UniProt P00533, L858R); test: EGFR tyrosine kinase inhibiting activity, ADP-Glo (EGFR (L858R) Kinase Enzyme System); conditions: read-out: EGFR Kinase inhibition: IC50 L858R
T2 construct: purchased Promega V5322
Description: as §1, §2

EGFR (T790M) = target: T3, EGFR (T790M) (Homo sapiens, UniProt P00533, T790M); test: EGFR tyrosine kinase inhibiting activity, ADP-Glo (EGFR (T790M) Kinase Enzyme System); conditions: for EGFR Kinase inhibition: IC50 T790M: ATP 10 μM, max concentration 20 μM, >10: <50% inhibition at 10 μM, no active: almost no activity at 20 μM; for IC50: read-out: EGFR Kinase inhibition: IC50 T790M
T3 construct: purchased Promega V4506
Description: as §1, §2

EGFR (T790M, L858R) = target: T4, EGFR (T790M, L858R) (Homo sapiens, UniProt P00533, L858R/T790M); test: EGFR tyrosine kinase inhibiting activity, ADP-Glo (EGFR (T790M, L858R) Kinase Enzyme System, DM); conditions: for EGFR Kinase inhibition: IC50 DM: ATP 10 μM, max concentration 20 μM, >10: <50% inhibition at 10 μM, no active: almost no activity at 20 μM; for IC50: read-out: EGFR Kinase inhibition: IC50 DM
T4 construct: purchased Promega V5324
Description: as §1, §2

T2 sequence (P00533 25-1210 L858R): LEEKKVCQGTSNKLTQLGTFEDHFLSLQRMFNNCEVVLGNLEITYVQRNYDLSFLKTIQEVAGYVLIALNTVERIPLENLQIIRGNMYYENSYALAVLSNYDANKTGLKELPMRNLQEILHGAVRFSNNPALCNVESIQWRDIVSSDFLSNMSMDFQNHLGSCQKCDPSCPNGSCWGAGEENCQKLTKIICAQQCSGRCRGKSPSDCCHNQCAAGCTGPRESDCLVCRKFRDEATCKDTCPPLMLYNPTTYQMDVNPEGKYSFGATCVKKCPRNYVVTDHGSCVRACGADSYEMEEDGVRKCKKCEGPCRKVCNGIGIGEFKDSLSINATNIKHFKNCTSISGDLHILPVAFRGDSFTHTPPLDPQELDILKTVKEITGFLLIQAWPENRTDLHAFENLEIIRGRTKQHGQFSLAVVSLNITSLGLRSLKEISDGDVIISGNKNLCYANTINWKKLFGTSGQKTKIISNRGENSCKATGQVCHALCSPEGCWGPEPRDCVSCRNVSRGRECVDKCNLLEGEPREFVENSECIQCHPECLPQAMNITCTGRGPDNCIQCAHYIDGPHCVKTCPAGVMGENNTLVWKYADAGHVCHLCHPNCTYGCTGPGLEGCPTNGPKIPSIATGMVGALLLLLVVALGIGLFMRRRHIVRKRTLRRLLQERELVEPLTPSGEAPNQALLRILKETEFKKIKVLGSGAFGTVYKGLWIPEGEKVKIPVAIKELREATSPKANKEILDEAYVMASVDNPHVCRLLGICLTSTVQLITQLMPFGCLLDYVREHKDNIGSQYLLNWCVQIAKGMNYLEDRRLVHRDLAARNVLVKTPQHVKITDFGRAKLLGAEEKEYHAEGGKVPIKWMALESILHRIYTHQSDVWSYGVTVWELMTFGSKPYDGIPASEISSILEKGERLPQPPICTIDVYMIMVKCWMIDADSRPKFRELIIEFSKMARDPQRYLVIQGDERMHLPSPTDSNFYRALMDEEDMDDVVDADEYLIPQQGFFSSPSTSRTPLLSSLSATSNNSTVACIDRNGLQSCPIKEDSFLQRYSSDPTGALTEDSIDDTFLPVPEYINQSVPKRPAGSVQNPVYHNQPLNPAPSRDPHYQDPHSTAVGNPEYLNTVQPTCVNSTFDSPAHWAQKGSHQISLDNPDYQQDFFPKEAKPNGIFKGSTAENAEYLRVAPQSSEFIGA
T4 sequence (P00533 25-1210 T790M/L858R): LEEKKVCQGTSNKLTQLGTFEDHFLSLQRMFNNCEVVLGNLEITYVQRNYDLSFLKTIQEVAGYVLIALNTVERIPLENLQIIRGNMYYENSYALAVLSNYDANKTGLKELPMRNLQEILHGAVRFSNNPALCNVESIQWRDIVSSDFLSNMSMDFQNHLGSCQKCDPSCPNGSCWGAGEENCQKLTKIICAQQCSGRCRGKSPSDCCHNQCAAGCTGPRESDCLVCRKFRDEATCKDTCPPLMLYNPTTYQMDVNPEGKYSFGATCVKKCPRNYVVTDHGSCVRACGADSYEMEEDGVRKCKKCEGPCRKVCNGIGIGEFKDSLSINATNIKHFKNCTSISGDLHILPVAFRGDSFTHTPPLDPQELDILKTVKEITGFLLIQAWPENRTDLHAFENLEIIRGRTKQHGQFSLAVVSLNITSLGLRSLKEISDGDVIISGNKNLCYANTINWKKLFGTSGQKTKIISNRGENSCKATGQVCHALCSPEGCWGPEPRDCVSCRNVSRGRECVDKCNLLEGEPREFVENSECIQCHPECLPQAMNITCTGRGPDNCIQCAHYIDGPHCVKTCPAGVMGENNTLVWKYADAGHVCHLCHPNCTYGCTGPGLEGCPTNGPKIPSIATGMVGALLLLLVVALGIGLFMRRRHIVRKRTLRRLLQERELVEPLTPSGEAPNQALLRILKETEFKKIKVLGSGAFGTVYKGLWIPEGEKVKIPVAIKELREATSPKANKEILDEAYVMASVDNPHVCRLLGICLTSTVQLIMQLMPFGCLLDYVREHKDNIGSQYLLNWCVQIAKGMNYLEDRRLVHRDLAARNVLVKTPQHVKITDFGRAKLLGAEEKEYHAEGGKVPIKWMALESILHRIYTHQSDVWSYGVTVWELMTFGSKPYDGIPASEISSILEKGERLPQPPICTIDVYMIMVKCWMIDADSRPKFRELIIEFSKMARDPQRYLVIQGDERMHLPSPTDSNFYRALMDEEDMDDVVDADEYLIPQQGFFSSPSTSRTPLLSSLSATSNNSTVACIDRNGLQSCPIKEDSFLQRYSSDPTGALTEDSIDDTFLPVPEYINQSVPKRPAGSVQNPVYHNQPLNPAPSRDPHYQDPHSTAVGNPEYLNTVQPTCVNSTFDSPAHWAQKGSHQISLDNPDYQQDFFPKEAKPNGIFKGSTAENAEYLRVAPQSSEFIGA
T3 sequence (P00533 25-1210 T790M): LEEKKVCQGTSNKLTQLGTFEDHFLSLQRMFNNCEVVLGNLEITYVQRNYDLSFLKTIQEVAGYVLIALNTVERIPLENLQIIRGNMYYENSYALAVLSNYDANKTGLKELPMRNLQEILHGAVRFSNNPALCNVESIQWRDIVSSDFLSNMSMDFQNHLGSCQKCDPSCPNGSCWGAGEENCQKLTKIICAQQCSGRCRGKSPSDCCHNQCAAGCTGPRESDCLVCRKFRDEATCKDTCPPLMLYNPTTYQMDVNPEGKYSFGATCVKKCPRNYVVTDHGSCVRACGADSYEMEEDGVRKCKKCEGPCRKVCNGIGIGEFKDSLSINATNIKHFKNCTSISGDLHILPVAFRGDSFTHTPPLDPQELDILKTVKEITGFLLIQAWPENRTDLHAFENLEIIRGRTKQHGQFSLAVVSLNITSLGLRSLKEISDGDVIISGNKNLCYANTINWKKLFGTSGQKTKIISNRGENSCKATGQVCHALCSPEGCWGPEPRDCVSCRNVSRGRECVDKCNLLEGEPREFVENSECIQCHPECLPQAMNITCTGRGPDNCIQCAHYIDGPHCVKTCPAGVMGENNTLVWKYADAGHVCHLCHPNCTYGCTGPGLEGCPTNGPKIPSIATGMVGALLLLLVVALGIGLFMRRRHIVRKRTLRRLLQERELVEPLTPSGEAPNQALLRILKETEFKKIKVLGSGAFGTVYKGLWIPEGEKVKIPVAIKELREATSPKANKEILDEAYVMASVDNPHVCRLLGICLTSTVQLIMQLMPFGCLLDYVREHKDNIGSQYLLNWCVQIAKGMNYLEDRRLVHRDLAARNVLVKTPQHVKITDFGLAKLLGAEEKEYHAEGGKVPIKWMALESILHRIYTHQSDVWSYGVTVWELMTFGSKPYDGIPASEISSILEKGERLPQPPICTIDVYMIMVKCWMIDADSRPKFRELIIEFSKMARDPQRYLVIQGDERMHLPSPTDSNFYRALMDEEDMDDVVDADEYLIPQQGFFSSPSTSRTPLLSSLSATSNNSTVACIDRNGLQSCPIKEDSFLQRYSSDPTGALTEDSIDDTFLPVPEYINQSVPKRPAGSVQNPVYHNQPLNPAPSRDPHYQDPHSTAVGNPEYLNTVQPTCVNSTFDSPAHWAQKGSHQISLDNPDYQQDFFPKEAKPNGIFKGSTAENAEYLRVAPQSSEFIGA
T1 sequence (P00533 25-1210): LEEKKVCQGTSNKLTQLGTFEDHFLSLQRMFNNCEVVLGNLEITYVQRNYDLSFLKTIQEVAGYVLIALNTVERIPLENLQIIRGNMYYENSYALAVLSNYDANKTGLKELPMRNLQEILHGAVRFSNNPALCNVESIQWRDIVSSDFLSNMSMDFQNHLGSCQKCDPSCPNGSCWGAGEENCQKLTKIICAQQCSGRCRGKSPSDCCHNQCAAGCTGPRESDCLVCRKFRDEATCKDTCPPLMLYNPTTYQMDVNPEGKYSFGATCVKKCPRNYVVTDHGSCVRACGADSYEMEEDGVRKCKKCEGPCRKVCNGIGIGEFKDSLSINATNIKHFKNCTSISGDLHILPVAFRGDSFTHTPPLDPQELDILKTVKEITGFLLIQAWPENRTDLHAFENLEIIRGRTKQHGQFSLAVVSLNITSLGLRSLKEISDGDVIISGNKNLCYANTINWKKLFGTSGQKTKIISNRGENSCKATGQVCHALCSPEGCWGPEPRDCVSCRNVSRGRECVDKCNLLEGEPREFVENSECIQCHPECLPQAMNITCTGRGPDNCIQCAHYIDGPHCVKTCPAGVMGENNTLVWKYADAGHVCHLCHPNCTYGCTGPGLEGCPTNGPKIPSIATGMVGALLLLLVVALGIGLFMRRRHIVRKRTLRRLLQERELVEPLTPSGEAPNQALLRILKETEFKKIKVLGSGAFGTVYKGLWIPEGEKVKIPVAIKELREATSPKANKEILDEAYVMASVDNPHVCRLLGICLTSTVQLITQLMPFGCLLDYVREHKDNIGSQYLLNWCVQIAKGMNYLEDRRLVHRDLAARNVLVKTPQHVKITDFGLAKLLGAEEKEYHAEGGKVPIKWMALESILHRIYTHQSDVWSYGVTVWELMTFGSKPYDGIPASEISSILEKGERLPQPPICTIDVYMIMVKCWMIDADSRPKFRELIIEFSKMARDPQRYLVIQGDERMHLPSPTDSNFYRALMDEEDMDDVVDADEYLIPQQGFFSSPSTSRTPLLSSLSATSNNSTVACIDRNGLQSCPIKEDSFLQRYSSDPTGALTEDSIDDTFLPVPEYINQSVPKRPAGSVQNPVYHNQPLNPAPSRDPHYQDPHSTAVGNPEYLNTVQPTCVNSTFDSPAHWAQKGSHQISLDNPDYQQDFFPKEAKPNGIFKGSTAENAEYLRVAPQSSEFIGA

Structure (SMILES)	IC50 [1]	IC50 (EGFR (L858R))	EGFR Kinase inhibition: IC50 T790M (EGFR (T790M))	EGFR Kinase inhibition: IC50 DM (EGFR (T790M, L858R))	IC50 (EGFR (T790M))	IC50 (EGFR (T790M, L858R))
OC[C@@H](Nc1ncnc2sc3c(c12)CCN(CCF)C3)c1ccccc1 [P1]	2.31 µM	3.41 µM	no active	no active	–	–
O=C(/C=C/CN1CCN(CCF)CC1)N1CCc2c(sc3ncnc(N[C@H](CO)c4ccccc4)c23)C1 [P2, (S,E)-4-(4-(2-Fluoroethyl)piperazin-1-yl)-1-(4-((2-hydroxy-1phenylethyl)amino)-5,8-dihydropyrido[4′,3′:4,5]thieno[2,3-d]pyrimidin-7(6H)-yl)but-2-en-1-one]	0.044 µM	0.009 µM	–	–	8.97 µM	> 10 µM
O=C(CN1CCN(CCF)CC1)N1CCc2c(sc3ncnc(N[C@H](CO)c4ccccc4)c23)C1 [P3, (S)-2-(4-(2-Fluoroethyl)piperazin-1-yl)-1-(4-((2-hydroxy-1phenylethyl)amino)-5,8-dihydropyrido[4′,3′:4,5]thieno[2,3-d]pyrimidin-7(6H)-yl)ethan-1-one]	4.37 µM	2.67 µM	no active	no active	–	–
O=C(CCN1CCN(CCF)CC1)N1CCc2c(sc3ncnc(N[C@H](CO)c4ccccc4)c23)C1 [P4, (S)-3-(4-(2-Fluoroethyl)piperazin-1-yl)-1-(4-((2-hydroxy-1phenylethyl)amino)-5,8-dihydropyrido[4′,3′:4,5]thieno[2,3-d]pyrimidin-7(6H)-yl)propan-1-one]	2.83 µM	1.83 µM	no active	no active	–	–
C[C@@H](Nc1ncnc2sc3c(c12)CCN(C(=O)/C=C/CN1CCN(CCF)CC1)C3)c1ccccc1 [P5, (R,E)-4-(4-(2-Fluoroethyl)piperazin-1-yl)-1-(4-((1-phenylethyl)amino)-5,8-dihydropyrido[4′,3′:4,5]thieno[2,3-d]pyrimidin-7(6H)-yl)but-2-en-1-one]	0.13 µM	0.027 µM	–	–	> 10 µM	> 10 µM
O=C(/C=C/CN1CCN(CCF)CC1)N1CCc2c(sc3ncnc(O[C@@H](c4ccccc4)C(F)(F)F)c23)C1 [P6, (S,E)-4-(4-(2-Fluoroethyl)piperazin-1-yl)-1-(4-(2,2,2-trifluoro-1-phenylethoxy)-5,8-dihydropyrido[4′,3′:4,5]thieno[2,3-d]pyrimidin-7 (6H)-yl)but-2-en-1-one]	0.896 µM	0.336 µM	no active	–	–	> 10 µM
COC[C@@H](Nc1ncnc2sc3c(c12)CCN(C(=O)/C=C/CN1CCN(CCF)CC1)C3)c1ccccc1 [P7]	0.374 µM	0.051 µM	no active	no active	–	–
O=C(/C=C/CN1CCN(CCF)CC1)N1CCc2c(sc3ncnc(Nc4cccc(Br)c4)c23)C1 [P8]	4.31 µM	1.38 µM	no active	no active	–	–
O=C(/C=C/CN1CCN(CCOCCF)CC1)N1CCc2c(sc3ncnc(N[C@H](CO)c4ccccc4)c23)C1 [P9]	0.067 µM	0.031 µM	–	–	> 10 µM	> 10 µM
O=C(/C=C/CN1CCN(CCOCCOCCOCCF)CC1)N1CCc2c(sc3ncnc(N[C@H](CO)c4ccccc4)c23)C1 [P10]	0.09 µM	0.052 µM	–	–	> 10 µM	> 10 µM
